Results: patent US8119690B2, “Polyunsaturated fatty acid monoglycerides, derivatives, and uses thereof” (Centre de Recherche sur les Biotechnologies Marines, priority 2007, dated 2012)

Key:
TNF-α = experiment: LPS-induced TNF-α release by THP-1 monocyte cells (ELISA); format: cell-based, human; conditions: THP-1 cells, 100 ng/ml LPS, 4 hours; vehicle gives 400 pg/ml; composition 3 10 μg/ml, curcumin 5 μg/ml
Protocol: Composition 3 (comprising compounds 1 (11%) and 5 (89%)) at final concentration of 10 μg/ml, curcumin (5 μg/ml) and a 1:1 mixture of composition 3 (10 μg/ml) and curcumin (5 μg/ml) in DMSO (1%) was used for the in vitro assay. Composition 3 prepared according to the same procedure as previously described in Example 2)
The in vitro assay allows evaluation of the potential anti-inflammatory effects of compounds on the induced-release of pro-inflammatory mediator by monocyte cells. Typical human monocyte THP-1 cells, involved in inflammatory processes, are used in this assay. Measurement of pro-inflammatory mediator TNF-α is performed by ELISA (manufactured by R&D Systems) with artificial induction of pro-inflammatory agents by LPS (E. Coli O55:B5) during 4 hours. Known anti-inflammatory agent dexametazone was used as positive control.

[1] = human, in vivo
Protocol: Controlled amount of boiled pasta was eaten after the 4 h time point. An initial blood sample (400 μl) was collected using a lancet at a fingertip into heparin tubes followed by samples at 1, 2, 3, 4, 5, 6, 7 and 8 hour after ingestion. Plasma was separated and immediately analysed for fatty acid composition.
The relative bioavailability of fatty acids from composition 2 compared to fish oil is calculated with the formula:
The AUC (calculates area under the curve for concentration vs. time data) is calculated using linear trapezoidal rule. […] The relative bioavailability of compound 1 and compound 5 is calculated with the same formula:

[2] = system: A-549 human lung cancer cell line; experiment: in vitro cell viability assay (SRB), A-549; format: cell-based; conditions: A549, A-549, at 294 μg/ml, 72 hours, read-out: growth inhibition
Protocol: (§1) The cell viability assay is performed to measure the relative cell viability status of cancer cells upon exposure to test compounds in comparison to a positive control (etoposide) and a negative control (vehicule). Adherent cells growing in 96-well plates are exposed to test compounds for 3 days (72 hours). […] Test compounds (composition 1 comprising compounds 1, 5 and 6) as well as positive and negative controls were tested in parallel on the same culture plate. All conditions are tested in triplicate. […] Inhibition of 50% of cell growth compared to basal condition is the lower limit indicating a positive biological response (considered as a hit). After the incubation time, total protein content is quantified following staining with the anionic dye sulforhodamine B (SRB). The detection of […], is completed by a microplate reader. […] The amount of […] is directly proportional to the number of living cells in culture. […] Cells were trypsinized using 0.25% trypsine (w/v)/0.53 mM EDTA solution (Hyclone), counted and plated at densities between 1000 and 3000 cells per well in flat bottom 96-well clear plates (Becton Dickinson) in 100 μl of appropriate culture medium supplemented with fetal bovine serum (Hyclone). […] Absorbance was read at 515 nm using a 96-well plate Multiskan Spectrum […] (Thermo Electron Corporation). […]

[3] = system: PC-3 human prostate cancer cell line; experiment: in vitro cell viability assay (SRB), PC-3; format: cell-based; conditions: PC-3, at 294 μg/ml, 72 hours, read-out: growth inhibition
Protocol: as §1

[4] = system: HCT-15 human colon cancer cell line; experiment: in vitro cell viability assay (SRB), HCT-15; format: cell-based; conditions: HCT-15, at 294 μg/ml, 72 hours, read-out: growth inhibition
Protocol: as §1

[5] = system: BT-549 human breast cancer cell line; experiment: in vitro cell viability assay (SRB), BT-549; format: cell-based; conditions: BT-549, at 294 μg/ml, 72 hours, read-out: growth inhibition
Protocol: as §1

COc1cc(/C=C/C(=O)CC(=O)/C=C/c2ccc(O)c(OC)c2)ccc1O [curcumin]
TNF-α measured (TNF-α): 100 pg/mL

C[C@@H]1C[C@H]2[C@@H]3CCC4=CC(=O)C=C[C@]4(C)[C@@]3(F)[C@@H](O)C[C@]2(C)[C@@]1(O)C(=O)CO [dexametazone]
TNF-α measured (TNF-α): 125 pg/mL

CC/C=C\C/C=C\C/C=C\C/C=C\C/C=C\CCCCCC(=O)OCC(O)CO (stereo not shown) [compound 1]
relative bioavailability compared to compound 5 [1]: 2.20

COc1cc([C@@H]2c3cc4c(cc3[C@@H](O[C@@H]3O[C@@H]5CO[C@@H](C)O[C@H]5[C@H](O)[C@H]3O)[C@H]3COC(=O)[C@H]23)OCO4)cc(OC)c1O [etoposide]
inhibition at 294 µg/mL [2]: 100%
inhibition at 294 µg/mL [3]: 100%
inhibition at 294 µg/mL [4]: 100%
inhibition at 294 µg/mL [5]: 100%
